In ChEMBL document CHEMBL1687773 (Antimicrob Agents Chemother, 2010):

Legend:
[1] = system: Human immunodeficiency virus 1; assay: Antiviral activity against HIV1 NL4-3 infected in human MT2 cells assessed as inhibition of virus-induced cell death at 0.5 multiplicities of infection after 6 days; type: functional, organism-based; conditions: Human immunodeficiency virus 1, NL4-3, MT2, 144 h
[2] = system: Human immunodeficiency virus 1; assay: Antiviral activity against HIV1 NL4-3 harboring reverse transcriptase V108I, H221Y, F227F/L, M230M/I mutant infected in human SupT1 cells derived from 11 viral passages with lersivirine assessed as inhibition of viral replication after 21 days relative to drug sensitive HIV1 NL4-3; type: functional, SUP-T1
[3] = system: Human immunodeficiency virus 1; assay: Antiviral activity against HIV1 NL4-3 harboring reverse transcriptase V108I, E138K mutant infected in human SupT1 cells derived from 9 viral passages with lersivirine assessed as inhibition of viral replication after 21 days relative to drug sensitive HIV1 NL4-3; type: functional, SUP-T1
[4] = system: Human immunodeficiency virus 1; assay: Antiviral activity against HIV1 NL4-3 infected in human SupT1 cells derived from 11 viral passages assessed as inhibition of viral replication after 21 days relative to drug sensitive HIV1 NL4-3; type: functional, SUP-T1
[5] = system: Human immunodeficiency virus 1; assay: Antiviral activity against HIV1 NL4-3 harboring reverse transcriptase L100I, K103Q, H221H/Y mutant infected in human SupT1 cells derived from 11 viral passages with efavirenz assessed as inhibition of viral replication after 21 days relative to drug sensitive HIV1 NL4-3; type: functional, SUP-T1
[6] = system: Human immunodeficiency virus 1; assay: Antiviral activity against HIV1 NL4-3 harboring reverse transcriptase V108I, E138K, F227F/L mutant infected in human SupT1 cells derived from 11 viral passages with lersivirine assessed as inhibition of viral replication after 21 days relative to drug sensitive HIV1 NL4-3; type: functional, SUP-T1

Structure (SMILES)	EC50 [1] [nM]	fold change (FC) [2]	fold change (FC) [3]	fold change (FC) [4]	fold change (FC) [5]	fold change (FC) [6]
CC(C)(C)NC(=O)[C@@H]1CN(Cc2cccnc2)CCN1C[C@@H](O)C[C@@H](Cc1ccccc1)C(=O)N[C@H]1c2ccccc2C[C@H]1O	0.5					
C=C(C)[C@@H]1CC[C@]2(C(=O)O)CC[C@]3(C)[C@H](CC[C@@H]4[C@@]5(C)CC[C@H](OC(=O)CC(C)(C)C(=O)O)C(C)(C)[C@@H]5CC[C@]43C)[C@@H]12 [BEVIRIMAT]	0.5					
CC(C)Nc1cccnc1N1CCN(C(=O)c2cc3cc(NS(C)(=O)=O)ccc3[nH]2)CC1 [DELAVIRDINE]		0.2	1.5	0.3	16.4	1.8
Cc1cc(C#N)cc(C)c1Oc1nc(Nc2ccc(C#N)cc2)nc(N)c1Br [ETRAVIRINE]	0.5					
Cc1ccnc2c1NC(=O)c1cccnc1N2C1CC1 [NEVIRAPINE]		6.4	0.9	0.2	1	12.2
Cc1cn([C@H]2C[C@H](N=[N+]=[N-])[C@@H](CO)O2)c(=O)[nH]c1=O [ZIDOVUDINE]		0.1	0.4	0.2	0.1	0.6
